Data set [1] has as its system rgRSV224 virus. Nature of the data set: microbe, parasite or virus in culture. The note with it: for EC50: human respiratory syncytial virus, HeLa, 72 h, read-out: RSV HELA pEC50 (converted); for RSV HELA pEC50: rgRSV224 virus MOI=1, HeLa cells, GFP expression three days post-virus exposure. Type of data set: cell-based, respiratory syncytial virus (RSV).
Data set [2] concerns HeLa cells.
Method: Black 384-well clear-bottom microtiter plates (Corning, Amsterdam, The Netherlands) were filled via acoustic drop ejection using the echo liquid handler (Labcyte, Sunnyvale, Calif.). 200 nL of compound stock solutions (100% DMSO) were transferred to the assay plates. 9 serial 4-fold dilutions of compound were made, creating per quadrant the same compound concentration. The assay was initiated by adding 10 μL of culture medium to each well (RPMI medium without phenol red, 10% FBS-heat inactivated, 0.04% gentamycin (50 mg/mL). All addition steps are done by using a multidrop dispenser (Thermo Scientific, Erembodegem, Belgium). Next, rgRSV224 virus (MOI=1) diluted in culture medium was added to the plates. rgRSV224 virus is an engineered virus that includes an additional GFP gene (Hallak L K, Spillmann D, Collins P L, Peeples M E. Glycosaminoglycan sulfation requirements for respiratory syncytial virus infection; Journal of virology (2000), 74(22), 10508-13) and was in-licensed from the NIH (Bethesda, Md., USA). Finally, 20 μL of a HeLa cell suspension (3,000 cells/well) were plated. Medium, virus- and mock-infected controls were included in each test. The wells contain 0.05% DMSO per volume. Cells were incubated at 37° C. in a 5% CO2 atmosphere. Three days post-virus exposure, viral replication was quantified by measuring GFP expression in the cells by an in house developed MSM laser microscope (Tibotec, Beerse, Belgium). The EC50 was defined as the 50% inhibitory concentration for GFP expression. In parallel, compounds were incubated for three days in a set of white 384-well microtiter plates (Corning) and the cytotoxicity of compounds in HeLa cells was determined by measuring the ATP content of the cells using the ATPlite kit (Perkin Elmer, Zaventem, Belgium) according to the manufacturer's instructions. The CC50 was defined as the 50% concentration for cytotoxicity.

As for `Cc1cccc2ncnc(N3CCCCC3c3cc4nc5c(c(N6CCOCC6)n4n3)CCC5)c12` (stereo not shown) [Compound P21, 4-(2-(1-(5-methylquinazolin-4-yl)piperidin-2-yl)-6,7-dihydro-5H-cyclopenta[d]pyrazolo[1,5-a]pyrimidin-8-yl)morpholine], in data set [1], the EC50 is 708 nM. In data set [2], the “TOX HELA pCC50” value is listed as 4.6.

Turning to `Cc1cccc2ncnc(N3CCCCC3c3cc4nc5c(c(N6CCCC6)n4n3)CCC5)c12` (stereo not shown) [Compound P22, 2-(1-(5-methylquinazolin-4-yl)piperidin-2-yl)-8-(pyrrolidin-1-yl)-6,7-dihydro-5H-cyclopenta[d]pyrazolo[1,5-a]pyrimidine], the EC50 in data set [1] was 282 nM. In data set [2], the “TOX HELA pCC50” value is given as 4.6.

For the compound `Cc1ccc(NS(C)(=O)=O)c(C(=O)N2CCCCC2c2cc3nc4c(c(N5CCOCC5)n3n2)CCCCC4)c1` (stereo not shown) [Compound P23, N-(4-methyl-2-(2-(10-morpholino-6,7,8,9-tetrahydro-5H-cyclohepta[d]-pyrazolo[1,5-a]pyrimidin-2-yl)piperidine-1-carbonyl)phenyl)-methanesulfonamide], the EC50 in data set [1] was 66.1 nM. Also, the “TOX HELA pCC50” value in data set [2] amounted to 4.6.

Consider `Cc1cccc2ncnc(N3CCCCC3c3cc4nc5c(c(N6CCOCC6)n4n3)CCCCC5)c12` (stereo not shown) [Compound P24, 4-(2-(1-(5-methylquinazolin-4-yl)piperidin-2-yl)-6,7,8,9-tetrahydro-5H-cyclohepta[d]pyrazolo[1,5-a]pyrimidin-10-yl)morpholine], for which the EC50 in data set [1] was 9550 nM. Besides, the “TOX HELA pCC50” value in data set [2] stood at 4.8.

In the case of `Cc1ccc(NS(C)(=O)=O)c(C(=O)N2CCCCC2c2cc3nc4c(c(N5CCOCC5)n3n2)COC4)c1` (stereo not shown) [Compound P25, N-(4-methyl-2-(2-(8-morpholino-5,7-dihydrofuro[3,4-d]pyrazolo[1,5-a]-pyrimidin-2-yl)piperidine-1-carbonyl)phenyl)methanesulfonamide], the EC50 in data set [1] was 468 nM. Also, the “TOX HELA pCC50” value in data set [2] was 4.

For the compound `Cc1ccc(NS(C)(=O)=O)c(C(=O)N2CCCCC2c2cc3nc4c(c(N(C)C)n3n2)CCCN4C)c1` (stereo not shown) [Compound P26, N-(2-(2-(9-(dimethylamino)-5-methyl-5,6,7,8-tetrahydropyrazolo-[1,5-a]pyrido[2,3-d]pyrimidin-2-yl)piperidine-1-carbonyl)-4-methylphenyl)-methane-sulfonamide], in data set [1], the EC50 is 1.58 nM. Also, the “TOX HELA pCC50” value in data set [2] was found to be 4.4.

For the compound `Cc1ccc(NS(C)(=O)=O)c(C(=O)N2CCCCC2c2cc3nc(N(C)C)c4c(n3n2)N(C)CCC4)c1` (stereo not shown) [Compound P27, N-(2-(2-(5-(dimethylamino)-9-methyl-6,7,8,9-tetrahydropyrazolo-[1,5-a]pyrido[3,2-e]pyrimidin-2-yl)piperidine-1-carbonyl)-4-methylphenyl)methane-sulfonamide], in data set [1], the EC50 was 2.04 nM. For the same compound, the “TOX HELA pCC50” value in data set [2] stood at 4.3.

On to `Cc1ccc(NS(C)(=O)=O)c(C(=O)N2CCCCC2c2cc3nc4c(c(N5CCOCC5)n3n2)CCOC4)c1` (stereo not shown) [Compound P28, N-(4-methyl-2-(2-(9-morpholino-7,8-dihydro-5H-pyrano[3,4-d]pyrazolo-[1,5-a]pyrimidin-2-yl)piperidine-1-carbonyl)phenyl)methane-sulfonamide], for which the EC50 in data set [1] was 355 nM. Moreover, the “TOX HELA pCC50” value in data set [2] is listed as 4.6.

Consider `Cc1cccc2ncnc(N3CCCCC3c3cc4nc5c(c(N6CCOCC6)n4n3)CCOC5)c12` (stereo not shown) [Compound P29, 2-(1-(5-methylquinazolin-4-yl)piperidin-2-yl)-9-morpholino-7,8-dihydro-5H-pyrano[3,4-d]pyrazolo[1,5-a]pyrimidine], for which, in data set [1], the EC50 is 3720 nM. For the same compound, the “TOX HELA pCC50” value in data set [2] was determined as 4.

As for `Cc1cccc2ncnc(N3CCCCC3c3cc4nc5c(c(N6CCOCC6)n4n3)COCC5)c12` (stereo not shown) [Compound P30, 2-(1-(5-methylquinazolin-4-yl)piperidin-2-yl)-9-morpholino-6,8-dihydro-5H-pyrano[4,3-d]pyrazolo[1,5-a]pyrimidine], in data set [1], the EC50 was 282 nM. Further, the “TOX HELA pCC50” value in data set [2] was 4.

Take `Cc1cccc2nc(NS(C)(=O)=O)nc(N3CCCCC3c3cc4nc5c(c(N6CCOCC6)n4n3)COCC5)c12` (stereo not shown) [Compound P32, N-(5-methyl-4-(2-(9-morpholino-6,8-dihydro-5H-pyrano[4,3-d]pyrazolo-[1,5-a]pyrimidin-2-yl)piperidin-1-yl)quinazolin-2-yl)methanesulfonamide]: in data set [1], the EC50 is 55 nM. Besides, the “TOX HELA pCC50” value in data set [2] is given as 4.

Consider `CCOc1nc(N2CCCCC2c2cc3nc4c(c(N5CCOCC5)n3n2)COCC4)c2c(C)cccc2n1` (stereo not shown) [Compound P33, 2-(1-(2-ethoxy-5-methylquinazolin-4-yl)piperidin-2-yl)-9-morpholino-6,8-dihydro-5H-pyrano[4,3-d]pyrazolo[1,5-a]pyrimidine], for which, in data set [1], the EC50 was 813 nM. For the same compound, the “TOX HELA pCC50” value in data set [2] was found to be 4.4.

`Cc1ccc(NS(C)(=O)=O)c(C(=O)N2CCCCC2c2cc3nc4c(c(N5CCOCC5)n3n2)COCC4)c1` (stereo not shown) [Compound P34, N-(4-methyl-2-(2-(9-morpholino-6,8-dihydro-5H-pyrano[4,3-d]pyrazolo-[1,5-a]pyrimidin-2-yl)piperidine-1-carbonyl)phenyl)methanesulfonamide]: in data set [1], the EC50 is 20.9 nM. In addition, the “TOX HELA pCC50” value in data set [2] is reported as 4.6.

Consider `Cc1cccc2ncnc(N3CCCCC3c3cc4nc5c(c(C)n4n3)CCCC5)c12` (stereo not shown) [Compound P35, 9-methyl-2-(1-(5-methylquinazolin-4-yl)piperidin-2-yl)-5,6,7,8-tetrahydropyrazolo[5,1-b]quinazoline], for which, in data set [1], the EC50 was 776 nM. Further, the “TOX HELA pCC50” value in data set [2] turned out to be 4.6.

On to `Cc1cccc2ncnc(N3CCCC[C@@H]3c3cc4nc5c(c(C)n4n3)CCCC5)c12` [Compound P37], for which the “RSV HELA pEC50” value in data set [1] amounted to 5.11. Moreover, the “TOX HELA pCC50” value in data set [2] was 4.4.

Regarding `Cc1cccc2ncnc(N3CCCC[C@H]3c3cc4nc5c(c(C)n4n3)CCCC5)c12` [Compound P38], the “RSV HELA pEC50” value in data set [1] was 6.79. For the same compound, the “TOX HELA pCC50” value in data set [2] amounted to 4.6.

As for `Cc1nc2cc([C@H]3CCCCN3c3ncnc4cccc(C)c34)nn2c2c1CCCC2` [Compound P39], in data set [1], the “RSV HELA pEC50” value was found to be 5.55. For the same compound, the “TOX HELA pCC50” value in data set [2] is given as 4.9.

Take `Cc1nc2cc([C@@H]3CCCCN3c3ncnc4cccc(C)c34)nn2c2c1CCCC2` [Compound P40]: in data set [1], the “RSV HELA pEC50” value is on record as 6.7. Also, in data set [2], the “TOX HELA pCC50” value stood at 4.7.

In the case of `Cc1cccc2nc(NS(C)(=O)=O)nc(N3CCCCC3c3cc4nc5c(c(N6CCOCC6)n4n3)CCC5)c12` (stereo not shown) [Compound P41, N-(5-methyl-4-(2-(8-morpholino-6,7-dihydro-5H-cyclopenta[d]pyrazolo-[1,5-a]pyrimidin-2-yl)piperidin-1-yl)quinazolin-2-yl)methanesulfonamide], the EC50 in data set [1] was 229 nM. Besides, in data set [2], the “TOX HELA pCC50” value came out at 4.

Turning to `Cc1cccc2ncnc(N3CCCCC3c3cc4nc5c(c(N(C)C)n4n3)CCN5C)c12` (stereo not shown) [Compound P42, N,N,5-trimethyl-2-(1-(5-methylquinazolin-4-yl)piperidin-2-yl)-6,7-dihydro-5H-pyrazolo[1,5-a]pyrrolo[2,3-d]pyrimidin-8-amine], the EC50 in data set [1] was 16.6 nM. Besides, in data set [2], the “TOX HELA pCC50” value worked out at 4.6.

These data come from patent US10131673B2, “Piperidine substituted tricyclic pyrazolo[1,5-a]pyrimidine derivatives with inhibitory activity on the replication of the respiratory syncytial virus (RSV)” (priority 2014, dated 2018).
